Source: patent publication US8883833B2, “Substituted benzoazole PDE4 inhibitors for treating inflammatory, cardiovascular and CNS disorders” (Decode Genetics EHF, priority 2007, dated 2014)

Tests used:
h4B1 = h4B1 (Homo sapiens, UniProt Q07343); assay: In-vitro assay for PDE4 enzymes, real-time enzyme-coupled spectrophotometric assay (Table 3); assay type: biochemical
Procedure: (§1) In-vitro assay for PDE4 enzymes. The in-vitro activity of PDE4 enzymes and the in-vitro potency of therapeutic agents described in the present invention was measured using a real-time, enzyme-coupled spectrophotometric assay. By using three different coupling enzymes, the product of the PDE4 reaction is coupled to the oxidation of the reduced form β-nicotinamide adenine dinucleotide (NADH), which dissipation can be monitored spectrophotmetrically at […]. Assay description. Buffer A containing 50 mM Tris, pH 8.0, 16 mM MgCl2 and 80 mM KCl is prepared and stored at room temperature. Buffer B containing 50 mM Tris, pH 8.0 is prepared and stored at toom temperature. Stock solutions of the following reagents are prepared in Buffer B and stored at −20° C.: Adenosine-5′-triphosphate (ATP), cyclic adenosine-5′-monophosphate (cAMP), phosphoenolpyruvate (PEP) and NADH. An assay mix is prepared by mixing Buffer A, […] (TCEP), ATP, PEP, NADH, myokinase (MK), pyruvate kinase (PK), lactate dehydroganese (LDH) and PDE4 to a final volume of 20 mL, which is enough for a single 96-well assay plate. Assay mix (180 μL) and test article (10 μL) in 1:1 DMSO/H2O mixture is pre-incubated at room temperature for 10 min. The enzymatic reaction is initiated by addition of cAMP (10 μL). Final concentration of all components in the assay (200 μL/well) are as follows: 10 mM MgCl2, 50 mM KCl, 5 mM TCEP, 2.5% DMSO, 0.4 mM NADH, 1 mM PEP, 0.04 mM ATP, 5 units MK, 1 unit PK, 1 unit LDH and appropriate amount of PDE4. Reaction progress curves are monitored in a plate reader capable of measuring light absorbance at 340 nm. A decrease in light absorbance at 340 nm is due to oxidation of NADH. Positive controls containing no test article and negative controls containing no test article and no cAMP are included on every assay plate. Reaction rates are determined from the slopes of the linear portions of the progress curves. All data is percent normalized with respect to controls and presented as percent inhibition.

h4D7 = h4D7 (Homo sapiens, UniProt Q08499); assay: as above; assay type: biochemical
Procedure: as §1

Sequence of h4D7 (Q08499 1-748 isoform Q08499-11): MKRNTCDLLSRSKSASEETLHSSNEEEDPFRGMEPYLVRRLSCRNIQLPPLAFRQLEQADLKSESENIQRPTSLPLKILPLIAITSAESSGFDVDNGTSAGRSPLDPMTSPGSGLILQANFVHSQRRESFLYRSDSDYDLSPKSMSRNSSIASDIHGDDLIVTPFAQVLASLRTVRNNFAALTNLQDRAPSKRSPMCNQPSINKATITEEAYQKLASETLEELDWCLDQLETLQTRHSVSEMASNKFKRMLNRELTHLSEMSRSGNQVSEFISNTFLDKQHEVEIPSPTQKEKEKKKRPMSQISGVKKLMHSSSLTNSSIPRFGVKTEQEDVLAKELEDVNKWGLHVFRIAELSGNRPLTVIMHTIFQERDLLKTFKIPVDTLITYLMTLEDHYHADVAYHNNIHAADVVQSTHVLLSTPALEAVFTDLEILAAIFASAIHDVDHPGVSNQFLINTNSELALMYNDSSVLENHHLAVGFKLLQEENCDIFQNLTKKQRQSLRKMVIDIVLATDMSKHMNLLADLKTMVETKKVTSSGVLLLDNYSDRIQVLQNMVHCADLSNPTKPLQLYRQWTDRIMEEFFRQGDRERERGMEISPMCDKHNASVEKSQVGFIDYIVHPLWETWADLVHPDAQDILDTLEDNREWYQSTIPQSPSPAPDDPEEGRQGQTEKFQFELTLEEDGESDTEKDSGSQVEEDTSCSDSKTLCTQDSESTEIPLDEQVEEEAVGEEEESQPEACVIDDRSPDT
Sequence of h4B1 (Q07343 whole entry): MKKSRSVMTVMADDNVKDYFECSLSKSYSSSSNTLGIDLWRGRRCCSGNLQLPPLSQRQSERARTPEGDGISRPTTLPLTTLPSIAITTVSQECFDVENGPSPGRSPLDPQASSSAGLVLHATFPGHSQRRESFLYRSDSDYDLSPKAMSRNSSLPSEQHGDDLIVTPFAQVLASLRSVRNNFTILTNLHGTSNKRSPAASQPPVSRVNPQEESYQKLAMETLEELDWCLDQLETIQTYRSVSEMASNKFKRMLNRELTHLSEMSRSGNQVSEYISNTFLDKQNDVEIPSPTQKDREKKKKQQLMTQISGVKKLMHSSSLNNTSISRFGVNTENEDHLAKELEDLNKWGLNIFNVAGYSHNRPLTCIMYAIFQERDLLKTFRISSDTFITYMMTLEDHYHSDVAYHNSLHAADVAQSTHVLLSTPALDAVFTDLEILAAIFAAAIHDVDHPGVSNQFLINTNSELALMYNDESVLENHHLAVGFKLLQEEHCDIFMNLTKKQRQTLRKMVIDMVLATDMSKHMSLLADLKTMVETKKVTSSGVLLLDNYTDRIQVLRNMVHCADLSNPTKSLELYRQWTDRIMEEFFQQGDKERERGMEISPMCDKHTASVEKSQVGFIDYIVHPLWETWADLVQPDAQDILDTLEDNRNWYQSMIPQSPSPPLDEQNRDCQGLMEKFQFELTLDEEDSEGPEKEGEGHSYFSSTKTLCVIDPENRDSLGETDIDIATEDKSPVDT

Cn1nccc1Cc1cc(-c2ccc3c(c2)OCO3)c2nc(N)sc2c1 [Example 8, 4-Benzo[1,3]dioxol-5-yl-6-(2-methyl-2H-pyrazol-3-ylmethyl)-benzothiazol-2-ylamine]
IC50 (h4B1): 1000 to 10000 nM
IC50 (h4D7): < 1000 nM

Nc1nc2c(-c3ccc4c(c3)OCO4)cc(Cn3cccn3)cc2s1 [Example 9, 4-Benzo[1,3]dioxol-5-yl-6-pyrazol-1-ylmethyl-benzothiazol-2-ylamine]
IC50 (h4B1): 1000 to 10000 nM
IC50 (h4D7): 1000 to 10000 nM

Nc1nc2c(-c3ccc4c(c3)OCO4)nc(Cc3ccc(F)cc3)nc2s1 [Example 11, 7-Benzo[1,3]dioxol-5-yl-5-(4-fluorobenzyl)-thiazolo[5,4-d]pyrimidin-2-ylamine]
IC50 (h4B1): 1000 to 10000 nM
IC50 (h4D7): < 1000 nM

CC(=O)c1cccc(-c2cc(Cn3cccn3)cc3sc(N)nc23)c1 [Example 12, 1-[3-(2-Amino-6-pyrazol-1-ylmethyl-benzothiazol-4-yl)-phenyl]-ethanone]
IC50 (h4B1): 1000 to 10000 nM
IC50 (h4D7): < 1000 nM

Nc1nc2c(-c3cccc(Br)c3)cc(Cc3ccc(F)cc3)cc2s1 [Example 13, 4-(3-bromophenyl)-6-(4-fluorobenzyl)-1,3-benzothiazol-2-amine]
IC50 (h4B1): 1000 to 10000 nM
IC50 (h4D7): < 1000 nM

CSc1cccc(-c2cc(Cn3cccn3)cc3sc(N)nc23)c1 [Example 14, 4-(3-Methylsulfanyl-phenyl)-6-pyrazol-1-ylmethyl-benzothiazol-2-ylamine]
IC50 (h4B1): 1000 to 10000 nM
IC50 (h4D7): < 1000 nM

Nc1ccc(Cc2cc3sc(N)nc3c(-c3cccc([N+](=O)[O-])c3)c2O)cc1 [Example 15, 2-Amino-6-(4-amino-benzyl)-4-(3-nitro-phenyl)-benzothiazol-5-ol]
IC50 (h4B1): < 1000 nM
IC50 (h4D7): < 1000 nM

CS(=O)(=O)Nc1ccc(Cc2cc(-c3cccc(Cl)c3)c3nc(N)sc3c2)cc1 [Example 18, N-{4-[2-Amino-4-(3-chloro-phenyl)-benzothiazol-6-ylmethyl]-phenyl}-methanesulfonamide]
IC50 (h4B1): 1000 to 10000 nM
IC50 (h4D7): < 1000 nM

CS(=O)(=O)Nc1ccc(Cc2cc3sc(N)nc3c(-c3cccc(Cl)c3)c2F)cc1 [Example 19, N-{4-[2-amino-4-(3-chloro-phenyl)-5-fluoro-benzothiazol-6-ylmethyl]-phenyl}-methanesulfonamide]
IC50 (h4B1): 1000 to 10000 nM
IC50 (h4D7): 1000 to 10000 nM

CS(=O)(=O)Nc1ccc(Cc2cc(-c3cccc(Cl)c3)c3nc(N)oc3c2)cc1 [Example 20, N-{4-[2-Amino-4-(3-chloro-phenyl)-benzooxazol-6-ylmethyl]-phenyl}-methanesulfonamide]
IC50 (h4B1): 1000 to 10000 nM
IC50 (h4D7): < 1000 nM

NC(=O)Nc1ccc(Cc2cc3sc(N)nc3c(-c3cccc(Cl)c3)c2F)cc1 [Example 21, {4-[2-amino-4-(3-chloro-phenyl)-5-fluoro-benzothiazol-6-ylmethyl]-phenyl}-urea]
IC50 (h4B1): < 1000 nM
IC50 (h4D7): < 1000 nM

Cc1nc2c(-c3cccc(Cl)c3)cc(Cc3ccc(N)cc3)cc2o1 [Example 22, 4-{[4-(3-chlorophenyl)-2-methyl-1,3-benzoxazol-6-yl]methyl}aniline]
IC50 (h4B1): < 1000 nM
IC50 (h4D7): < 1000 nM

Nc1ccc(Cc2cc3scnc3c(-c3cccc(Cl)c3)c2F)cc1 [Example 23, 4-[4-(3-chloro-phenyl)-5-fluoro-benzothiazol-6-ylmethyl]-phenylamine]
IC50 (h4B1): < 1000 nM
IC50 (h4D7): < 1000 nM

Cc1nc2c(-c3cccc(Cl)c3)cc(Cc3ccc(NC(N)=O)cc3)cc2o1 [Example 24, N-(4-{[4-(3-chlorophenyl)-2-methyl-1,3-benzoxazol-6-yl]methyl}phenyl)urea]
IC50 (h4B1): < 1000 nM
IC50 (h4D7): < 1000 nM

Nc1ccc(Cc2cc(-c3cccc(Cl)c3)c3ncsc3c2)cc1 [Example 25, 4-[4-(3-Chloro-phenyl)-benzothiazol-6-ylmethyl]-phenylamine]
IC50 (h4B1): < 1000 nM
IC50 (h4D7): < 1000 nM

Nc1ccc(Cc2cc(-c3cccc(Cl)c3)c3nc(N)sc3c2)cc1 [Example 26, 6-(4-Amino-benzyl)-4-(3-chloro-phenyl)-benzothiazol-2-ylamine]
IC50 (h4B1): < 1000 nM
IC50 (h4D7): < 1000 nM
